Experimental findings from patent US10065990B2, “Cyclic peptide compound, and preparation method, pharmaceutical composition and use thereof” (HANGZHOU GUANYU BIO-MEDICAL CO., LTD, priority 2013, dated 2018) are described below.

Each structure is given as a SMILES string. Read-outs that look alike come from different tables or passages of the source.

One assay deals with HDAC2 (Homo sapiens, UniProt Q92769). Kind of assay: HDAC biochemical activity measurement (fluorescent substrate deacetylation). The settings on record: 37° C. 30 minutes.
The target of a further assay is T1, HDAC7 (Homo sapiens, UniProt Q8WUI4).
T1 sequence (Q8WUI4 1-952): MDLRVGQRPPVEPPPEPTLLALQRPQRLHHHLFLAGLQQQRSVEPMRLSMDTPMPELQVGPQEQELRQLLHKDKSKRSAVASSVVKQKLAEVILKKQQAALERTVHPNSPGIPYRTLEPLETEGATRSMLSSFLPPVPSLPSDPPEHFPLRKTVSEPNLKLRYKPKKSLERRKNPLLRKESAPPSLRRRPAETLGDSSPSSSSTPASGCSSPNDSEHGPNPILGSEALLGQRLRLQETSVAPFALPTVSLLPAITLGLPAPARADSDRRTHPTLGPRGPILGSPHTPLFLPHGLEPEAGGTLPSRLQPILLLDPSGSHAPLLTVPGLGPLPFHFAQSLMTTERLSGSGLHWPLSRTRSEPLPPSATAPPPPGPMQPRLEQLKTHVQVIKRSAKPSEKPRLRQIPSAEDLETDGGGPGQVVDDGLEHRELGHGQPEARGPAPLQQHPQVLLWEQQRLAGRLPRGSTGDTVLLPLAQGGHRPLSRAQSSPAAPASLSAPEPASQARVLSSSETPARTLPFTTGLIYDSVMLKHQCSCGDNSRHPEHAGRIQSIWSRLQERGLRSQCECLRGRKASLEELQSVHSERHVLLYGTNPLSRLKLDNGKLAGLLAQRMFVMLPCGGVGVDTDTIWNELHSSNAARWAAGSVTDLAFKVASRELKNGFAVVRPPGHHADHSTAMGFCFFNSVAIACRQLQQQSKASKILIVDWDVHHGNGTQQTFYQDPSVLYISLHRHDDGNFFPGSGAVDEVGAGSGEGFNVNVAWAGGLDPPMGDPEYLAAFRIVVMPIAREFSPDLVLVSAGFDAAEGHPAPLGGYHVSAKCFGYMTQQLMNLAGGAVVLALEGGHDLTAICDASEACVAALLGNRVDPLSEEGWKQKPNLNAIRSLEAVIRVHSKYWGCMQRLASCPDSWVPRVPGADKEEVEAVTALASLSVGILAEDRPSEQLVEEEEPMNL
Described as above. The settings on record: HDAC7; 37° C. 30 minutes.

Assay [1] has as its system A549 (human lung cancer cells). Put plainly: MTT cancer cell growth inhibition. Type of assay: cell-based. The settings on record: MTT, 72 hours incubation, read-out: GI50 A54. In outline: (§1)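 MTT viability, 570 nm, GI50. Cells 1500/well; compound 72 h at final 10^−5–10^−10 M in triplicate.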
Assay [2] has as its system BGC-823 (human gastric cancer cells). Put plainly: MTT cancer cell growth inhibition. Type of assay: cell-based. The settings on record: MTT, 72 hours incubation, read-out: GI50 BG. In outline: as §1
Assay [3] deals with Bel-7402 (human hepatoma cells). Put plainly: MTT cancer cell growth inhibition. Type of assay: cell-based. The conditions noted are these: MTT, 72 hours incubation, Bel-7402 cells; read-out: GI50 Bel-7402. In outline: as §1
Assay [4] relates to DU145 (human prostate cancer cells). Kind of assay: MTT cancer cell growth inhibition. Type of assay: cell-based. The settings on record: MTT, 72 hours incubation, read-out: GI50 Du1. In outline:
as §1

Assay [5] has as its system H1975 (non-small cell lung adenocarcinoma). Kind of assay: MTT cancer cell growth inhibition. Type of assay: cell-based. The conditions noted are these: MTT, 72 hours incubation, H1975 cells; read-out: GI50 H1975. In outline:
as §1

Assay [6] has as its system HCC827 (human non-small cell lung cancer cells). Put plainly: MTT cancer cell growth inhibition. Type of assay: cell-based. The settings on record: MTT, 72 hours incubation, HCC827 cells; read-out: GI50 HCC827. In outline: as §1
The subject of assay [7] is HT1080 (human fibrosarcoma cells). Kind of assay: MTT cancer cell growth inhibition. Type of assay: cell-based. The conditions noted are these: MTT, 72 hours incubation, read-out: GI50 HT1. In outline:
as §1

In assay [8] the test system is Hela (human cervical cancer cells). Kind of assay: MTT cancer cell growth inhibition. Type of assay: cell-based. The settings on record: MTT, 72 hours incubation, read-out: GI50 Hela. In outline: as §1
Assay [9] has as its system Huh-7 (human hepatoma cells). Put plainly: MTT cancer cell growth inhibition. Type of assay: cell-based. The conditions noted are these: MTT, 72 hours incubation, Huh-7 cells; read-out: GI50 Huh-7. In outline:
as §1

In assay [10] the test system is K562 (human leukemia cells). Kind of assay: MTT cancer cell growth inhibition. Type of assay: cell-based. The conditions noted are these: MTT, 72 hours incubation, K562 cells; read-out: GI50 K562. In outline: as §1
In assay [11] the test system is KBM-5 (human chronic myelogenous leukemia). Kind of assay: MTT cancer cell growth inhibition. Type of assay: cell-based. The conditions noted are these: MTT, 72 hours incubation, KBM-5 cells; read-out: GI50 KBM-5. In outline:
as §1

The subject of assay [12] is KBM5-T315I (human chronic myelogenous leukemia). Kind of assay: MTT cancer cell growth inhibition. The conditions noted are these: MTT, 72 hours incubation, KBM5-T315I cells; read-out: GI50 KBM5-T315I. Type of assay: cell-based. In outline: as §1
Assay [13] relates to MCF-7 (human breast cancer cells). Kind of assay: MTT cancer cell growth inhibition. Type of assay: cell-based. The conditions noted are these: 72 hours incubation, read-out: GI50 MCF. In outline:
as §1

Assay [14] has as its system MDA-MB-231 (breast cancer cells). Put plainly: MTT cancer cell growth inhibition. The settings on record: read-out: GI50 MDA-MB-231; MTT, 72 hours incubation, MDA-MB-231 cells. Type of assay: cell-based. In outline:
as §1

The subject of assay [15] is MOLT-4 (human acute lymphoblastic leukemia cells). Put plainly: MTT cancer cell growth inhibition. Type of assay: cell-based. The conditions noted are these: MTT, 72 hours incubation, read-out: GI50 Mol. In outline: as §1
Assay [16] deals with N-87 (human gastric cancer cells). Put plainly: MTT cancer cell growth inhibition. Type of assay: cell-based. The settings on record: MTT, 72 hours incubation, N-87 cells; read-out: GI50 N-87. In outline:
as §1

The subject of assay [17] is PANC-1 (Pac-1, human pancreatic cancer cells). Kind of assay: MTT cancer cell growth inhibition. Type of assay: cell-based. The conditions noted are these: MTT, 72 hours incubation, read-out: GI50 PAN. In outline: as §1
Assay [18] has as its system SGC-7901 (human gastric cancer cells). Kind of assay: MTT cancer cell growth inhibition. The settings on record: MTT, 72 hours incubation, SGC-7901 cells; read-out: GI50 SGC-7901. Type of assay: cell-based. In outline:
as §1

For assay [19], the system named is U937 (human leukemia cells). Put plainly: MTT cancer cell growth inhibition. Type of assay: cell-based. The conditions noted are these: MTT, 72 hours incubation, read-out: GI50 U93. In outline: as §1
The subject of assay [20] is lncap (prostate cancer cells). Put plainly: MTT cancer cell growth inhibition. The conditions noted are these: MTT, 72 hours incubation, read-out: GI50 lnca. Type of assay: cell-based. In outline: as §1
The target of another assay is T2, HDAC11 (Homo sapiens, UniProt Q96DB2).
T2 sequence (Q96DB2 1-347): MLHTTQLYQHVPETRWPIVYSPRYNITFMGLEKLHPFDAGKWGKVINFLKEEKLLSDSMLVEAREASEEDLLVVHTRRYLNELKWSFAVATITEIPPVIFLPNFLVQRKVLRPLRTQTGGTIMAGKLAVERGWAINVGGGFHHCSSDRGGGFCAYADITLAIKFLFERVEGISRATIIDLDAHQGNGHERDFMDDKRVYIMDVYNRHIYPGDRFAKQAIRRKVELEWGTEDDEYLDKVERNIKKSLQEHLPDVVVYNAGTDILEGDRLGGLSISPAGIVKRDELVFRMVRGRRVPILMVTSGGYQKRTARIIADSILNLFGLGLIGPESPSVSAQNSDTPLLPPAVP
Put plainly: HDAC biochemical activity measurement (fluorescent substrate deacetylation). The settings on record: read-out: IC50 HDAC11; HDAC11; 37° C. 30 minutes.

Another assay addresses HDAC1 (Homo sapiens, UniProt Q13547). The assay is described as above.
For another assay, the target named is T3, HDAC8 (Homo sapiens, UniProt Q9BY41).
T3 sequence (Q9BY41 1-377): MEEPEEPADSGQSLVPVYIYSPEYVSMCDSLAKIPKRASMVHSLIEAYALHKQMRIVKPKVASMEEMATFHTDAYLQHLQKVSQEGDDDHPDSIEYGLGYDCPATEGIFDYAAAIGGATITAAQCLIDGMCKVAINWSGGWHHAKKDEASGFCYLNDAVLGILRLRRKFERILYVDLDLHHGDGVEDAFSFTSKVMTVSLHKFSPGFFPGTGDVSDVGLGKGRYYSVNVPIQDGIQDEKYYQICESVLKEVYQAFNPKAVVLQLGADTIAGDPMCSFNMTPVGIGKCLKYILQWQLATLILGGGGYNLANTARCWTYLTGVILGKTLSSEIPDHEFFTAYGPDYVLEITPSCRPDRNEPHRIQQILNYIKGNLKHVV
The description is as above. The settings on record: 37° C. 30 minutes.

The target in the next assay is HDAC3 (Homo sapiens, UniProt O15379). The assay is described as above. The conditions noted are these: read-out: IC50 HDAC3; HDAC3; 37° C. 30 minutes.
The mark [21] stands for this setting: HDAC1, 37° C. 30 minutes, read-out: IC50 HDAC1.
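Wherever IC50 HDAC1 is given: fluorogenic acetyl-lysine substrate (20 µM) deacetylated by HDAC1, then developer releases fluorophore read at 360 nm excitation and 460 nm emission, inhibitor incubated 30 min at 37 °C.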
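Wherever IC50 HDAC1, C (six-membered ring with substituents) is given: fluorogenic acetyl-lysine substrate (20 µM) deacetylated by HDAC1, then developer releases fluorophore read at 360 nm excitation and 460 nm emission, inhibitor incubated 30 min at 37 °C.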
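Wherever IC50 HDAC7 is given: fluorogenic deacetylation assay using acetyl-lysine substrate at 20 µM, enzyme and compound incubated 30 min at 37 °C, then developer added, fluorescence read at 360/460 nm.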

Sequence of HDAC2 (Q92769 whole entry, species assumed): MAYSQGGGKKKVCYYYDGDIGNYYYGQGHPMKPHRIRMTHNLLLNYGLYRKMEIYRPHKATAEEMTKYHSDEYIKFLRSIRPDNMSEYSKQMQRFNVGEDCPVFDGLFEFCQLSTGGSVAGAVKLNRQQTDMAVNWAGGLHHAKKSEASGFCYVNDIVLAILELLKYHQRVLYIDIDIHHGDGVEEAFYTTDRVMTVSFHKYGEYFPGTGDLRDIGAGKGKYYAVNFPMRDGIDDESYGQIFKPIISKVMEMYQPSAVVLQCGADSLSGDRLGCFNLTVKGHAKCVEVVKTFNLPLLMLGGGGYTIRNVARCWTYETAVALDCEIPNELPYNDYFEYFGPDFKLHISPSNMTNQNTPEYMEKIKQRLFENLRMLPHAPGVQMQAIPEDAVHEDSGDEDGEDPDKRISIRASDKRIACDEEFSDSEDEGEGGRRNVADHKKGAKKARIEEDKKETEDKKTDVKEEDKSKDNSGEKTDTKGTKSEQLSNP
Sequence of HDAC1 (Q13547 whole entry, species assumed): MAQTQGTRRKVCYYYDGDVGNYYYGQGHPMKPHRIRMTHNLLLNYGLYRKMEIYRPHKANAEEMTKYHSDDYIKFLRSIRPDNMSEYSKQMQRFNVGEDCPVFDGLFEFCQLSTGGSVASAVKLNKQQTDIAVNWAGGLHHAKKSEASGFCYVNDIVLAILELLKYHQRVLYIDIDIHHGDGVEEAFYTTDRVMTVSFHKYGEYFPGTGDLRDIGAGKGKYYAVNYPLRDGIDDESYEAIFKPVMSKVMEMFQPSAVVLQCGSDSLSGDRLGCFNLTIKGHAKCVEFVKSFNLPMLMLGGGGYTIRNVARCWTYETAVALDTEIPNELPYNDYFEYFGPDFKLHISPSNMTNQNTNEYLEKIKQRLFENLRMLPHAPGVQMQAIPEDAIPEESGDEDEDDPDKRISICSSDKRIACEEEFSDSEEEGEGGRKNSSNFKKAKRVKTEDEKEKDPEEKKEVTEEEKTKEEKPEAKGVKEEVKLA
Sequence of HDAC3 (O15379 whole entry, species assumed): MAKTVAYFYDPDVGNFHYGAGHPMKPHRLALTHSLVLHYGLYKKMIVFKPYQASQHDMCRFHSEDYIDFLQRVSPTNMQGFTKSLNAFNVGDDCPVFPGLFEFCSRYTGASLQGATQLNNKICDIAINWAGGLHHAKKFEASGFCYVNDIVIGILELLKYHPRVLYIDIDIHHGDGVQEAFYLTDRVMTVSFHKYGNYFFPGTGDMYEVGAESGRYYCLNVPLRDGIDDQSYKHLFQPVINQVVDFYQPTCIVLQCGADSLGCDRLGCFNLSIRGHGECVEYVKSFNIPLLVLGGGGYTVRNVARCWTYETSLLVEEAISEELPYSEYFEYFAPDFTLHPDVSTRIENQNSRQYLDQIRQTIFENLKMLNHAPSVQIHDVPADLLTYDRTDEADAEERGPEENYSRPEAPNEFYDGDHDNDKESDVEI
Sequence of HDAC3 (Q9Y618 395-489 partner limits assumed, species assumed): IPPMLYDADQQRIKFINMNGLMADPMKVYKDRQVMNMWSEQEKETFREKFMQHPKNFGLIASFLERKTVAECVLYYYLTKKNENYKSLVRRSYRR

Broadly, the IC50 is the concentration that gives 50% inhibition. What is called GI50 is the concentration giving 50% growth inhibition. On to `C/C=C1\NC(=O)c2nc(ccc2SC)CNC(=O)C[C@@H](/C=C/CCSC(C)=O)OC(=O)[C@H](C)NC1=O` [Compound 213], for which the IC50 on HDAC2 turned out to be 34 nM; on HDAC11, 87 nM. Besides, the “IC50 HDAC7” value against HDAC7 is “no activity”. Moreover, the GI50 in assay [1] (A549 cells) was determined as 70 nM; in assay [2] (BGC-823 cells), 30 nM; in [3], 53 nM; in assay [4] (DU145 cells), 20 nM; in [5], 76 nM; in [6] it was 28 nM. Also, the GI50 in assay [7] (HT1080 cells) worked out at 20 nM; in assay [8] (Hela cells) it was 50 nM; in assay [9], 35 nM; in [10], 28 nM; in assay [11], 78 nM; in [12], 54 nM. In addition, the 50% growth inhibitory concentration (GI50) in assay [13] (MCF-7 cells) came out at 90 nM; in assay [14] it was 37 nM; in [15] (MOLT-4 cells), 40 nM; in [16], 42 nM; in assay [17] (PANC-1 cells), 80 nM; in [18], 58 nM. Also, the GI50 in assay [19] (U937 cells) and in [20] (lncap cells) was 70 nM in each case.

Regarding `C/C=C1\NC(=O)c2cc(F)cc(n2)CNC(=O)C[C@@H](/C=C/CCSC(C)=O)OC(=O)[C@H](C(C)C)NC1=O` [Compound 49], the IC50 at HDAC1 (setting [21]) stood at 16 nM; at HDAC1 (Table 3, column C, read-out: IC50 HDAC1, C (six-membered ring with substituents)), 16 nM; on HDAC2, 46 nM; on HDAC8 it was 38 nM; at HDAC3 it was 48 nM; on HDAC11 it was 73 nM. Also, the GI50 in [1] stood at 60 nM; in assay [2] it was 70 nM; in [4], 10 nM; in assay [7] it was 70 nM; in assay [8], 80 nM; in [13], 50 nM. Moreover, the GI50 in [15] stood at 20 nM; in assay [17], 70 nM; in [19], 30 nM; in assay [20] it was 20 nM.

Consider `C/C=C1\NC(=O)c2ccc(F)c(n2)CNC(=O)C[C@@H](/C=C/CCSC=O)OC(=O)[C@H](C(C)C)NC1=O` [Example 53], for which the IC50 on HDAC1 (setting [21]) amounted to 84 nM; against HDAC2 it was 43 nM; against HDAC8, 26 nM; at HDAC3 it was 29 nM; at HDAC11, 105 nM. Moreover, the “IC50 HDAC7” value on HDAC7 was “no activity”.
